Experiments:
DIGSA [1] = assay: Herbicidal post-emergence action 1b (twin sowing, 1280 g/ha); format: in vivo, Digitaria sanguinalis; conditions: dosage 1280 g/ha, visual rating about 3 weeks after treatment
Procedure, shortened: (§1)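 Compounds formulated as WP or EC were applied with 0.5% additive in 600 L/ha water onto one-leaf-stage weeds, each pot sown with one monocot and one dicot species in sandy loam. After roughly 3 weeks in the greenhouse, visual percent activity was scored against untreated plants.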

ABUTH [2] = assay: as above; format: in vivo, Abutilon theophrasti; conditions: dosage 1280 g/ha, visual rating about 3 weeks after treatment
Procedure, shortened: as §1

DIGSA [3] = assay: Herbicidal pre-emergence action 2b (doubly sown, 1280 g/ha); format: in vivo, Digitaria sanguinalis; conditions: doubly sown pots, dosage 1280 g/ha, visual scoring after about 3 weeks
Procedure, shortened: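 Visual % scores against untreated plants (0% = like control, 100% = dead) were taken roughly 3 weeks after treatment in the greenhouse. Compounds, as WP or EC with 0.5% additive, were applied in 600 l/ha water onto covering soil over seeds of paired mono-/dicot weeds in sandy loam.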

ABUTH [4] = assay: Herbicidal pre-emergence action 2a (greenhouse pots, visual scoring); format: in vivo, Abutilon theophrasti; conditions: dosage 320 g/ha, visual scoring after about 3 weeks vs untreated controls
Procedure, shortened: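 Weed and crop seeds placed in pots and covered with soil; aqueous suspension or emulsion of WP/EC formulation applied to the soil surface before emergence (600 l/ha, 0.5% additive, 320 and/or 80 g/ha). Pots kept in the greenhouse about 3 weeks; visual percentage scoring.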

STEME [5] = assay: Herbicidal post-emergence action 1a (greenhouse pots, visual rating); format: in vivo, Stellaria media; conditions: rated visually about 3 weeks after treatment, 100% = plants have died, 0% = like control plants
Procedure, shortened: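 Visual scoring versus untreated plants (100% = plants dead, 0% = as control) followed roughly 3 weeks in the greenhouse after treatment. Plants grown in sandy loam pots had been sprayed on green parts at the one-leaf stage, 2–3 weeks post-sowing, with aqueous WP/EC preparations containing 0.5% additive, 600 l/ha, at 320 and/or 80 g/ha.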

STEME [6] = assay: Herbicidal pre-emergence action 2a (greenhouse pots, visual scoring); format: in vivo, Stellaria media; conditions: dosage 320 g/ha, visual scoring after about 3 weeks vs untreated controls
Text: (§2) [table] a) Seeds of monocotyledonous and dicotyledonous weed plants and crop plants are placed in plastic or organic plant pots and covered with soil. The compounds of the invention, formulated in the form of wettable powders (WP) or as emulsion concentrates (EC), are then applied onto the surface of the covering soil as aqueous suspension or emulsion with addition of 0.5% additive at a water application rate of 600 1/ha (converted). After the treatment, the pots are placed in a greenhouse and kept under good growth conditions for the trial plants. After about 3 weeks, the effect of the preparations is scored visually in comparison with untreated controls as percentages. For example, 100% activity=the plants have died, 0% activity=like control plants. Tables B1 to B15 below show the effects of selected compounds of the general formula (I) according to Tables 1 and 2 on various harmful plants and an application rate corresponding to 320 g/ha and/or 80 g/ha, which were obtained by the experimental procedure mentioned above.

HORMU [7] = assay: Herbicidal post-emergence action 1a (greenhouse pots, visual rating); format: in vivo, Hordeum murinum; conditions: rated visually about 3 weeks after treatment, 100% = plants have died, 0% = like control plants
Experimental: [table] a) Seeds of monocotyledonous and dicotyledonous weeds and crop plants are placed in sandy loam in plastic or organic plant pots, covered with soil and cultivated in a greenhouse under controlled growth conditions. 2 to 3 weeks after sowing, the test plants are treated at the one-leaf stage. The compounds of the invention, formulated in the form of wettable powders (WP) or as emulsion concentrates (EC), are then sprayed onto the green parts of the plants as aqueous suspension or emulsion with addition of 0.5% additive at a water application rate of 600 1/ha (converted). After the test plants have been kept in the greenhouse under optimum growth conditions for about 3 weeks, the activity of the preparations is rated visually in comparison to untreated controls. For example, 100% activity=the plants have died, 0% activity=like control plants. Tables A1 to A15 below show the effects of selected compounds of the general formula (I) according to Tables 1 and 2 on various harmful plants and an application rate corresponding to 320 g/ha and/or 80 g/ha, which were obtained by the experimental procedure mentioned above.

HORMU [8] = assay: Herbicidal pre-emergence action 2a (greenhouse pots, visual scoring); format: in vivo, Hordeum murinum; conditions: dosage 320 g/ha, visual scoring after about 3 weeks vs untreated controls
Text: as §2

## COC(=O)[C@@H](C)Oc1nn(-c2cnccn2)c(-c2ccc(F)nc2)c1Cl [Example I-36]
DIGSA [1]
  Post-emergence action at 1280 g/ha against DIGSA in %: 100%
ABUTH [2]
  Post-emergence action at 1280 g/ha against ABUTH in %: 90%
DIGSA [3]
  Pre-emergence action at 1280 g/ha against DIGSA in %: 100%

## COC(=O)[C@@H](C)Oc1nn(-c2cnccn2)c(-c2ccc(F)c(F)c2)c1Br [Example I-45]
DIGSA [1]
  Post-emergence action at 1280 g/ha against DIGSA in %: 100%
ABUTH [2]
  Post-emergence action at 1280 g/ha against ABUTH in %: 90%
DIGSA [3]
  Pre-emergence action at 1280 g/ha against DIGSA in %: 100%

## C[C@@H](Oc1nn(-c2cnccn2)c(-c2cccc(F)c2)c1Br)C(=O)O [Example I-48]
ABUTH [4]
  Pre-emergence action against ABUTH in %: 100%
ABUTH [2]
  Post-emergence action at 1280 g/ha against ABUTH in %: 90%
DIGSA [3]
  Pre-emergence action at 1280 g/ha against DIGSA in %: 100%

## COC(=O)[C@@H](C)Oc1nn(-c2cnccn2)c(-c2ccc(F)c(F)c2)c1C#N [Example I-46]
ABUTH [4]
  Pre-emergence action against ABUTH in %: 80%
DIGSA [1]
  Post-emergence action at 1280 g/ha against DIGSA in %: 100%
ABUTH [2]
  Post-emergence action at 1280 g/ha against ABUTH in %: 90%
DIGSA [3]
  Pre-emergence action at 1280 g/ha against DIGSA in %: 100%

## COC(=O)[C@@H](C)Oc1nn(-c2cnccn2)c(-c2ccnc(F)c2)c1Br [Example I-34]
DIGSA [1]
  Post-emergence action at 1280 g/ha against DIGSA in %: 100%
DIGSA [3]
  Pre-emergence action at 1280 g/ha against DIGSA in %: 100%

## COC(=O)COc1nn(-c2cnccn2)c(-c2ccc(F)nc2)c1Br [Example I-11]
DIGSA [1]
  Post-emergence action at 1280 g/ha against DIGSA in %: 100%
ABUTH [2]
  Post-emergence action at 1280 g/ha against ABUTH in %: 90%
DIGSA [3]
  Pre-emergence action at 1280 g/ha against DIGSA in %: 90%

## CCOC(=O)COc1nn(-c2cnccn2)c(-c2ccc(F)nc2)c1Br [Example I-52, ethyl {[4-bromo-5-(6-fluoropyridin-3-yl)-1-(pyrazin-2-yl)-1H-pyrazol-3-yl]oxy}acetate]
DIGSA [3]
  Pre-emergence action at 1280 g/ha against DIGSA in %: 100%

## CCOC(=O)COc1nn(-c2cnccn2)c(-c2ccccc2)c1Br [Example I-01]
STEME [5]; Dosage 320 g/ha
  Post-emergence action against STEME in %: 90%
STEME [6]
  Pre-emergence action against STEME in %: 80%

## COC(=O)C(C)Oc1nn(-c2cnccn2)c(-c2ccc(F)c(F)c2)c1Br (racemic) [Example I-16]
ABUTH [2]
  Post-emergence action at 1280 g/ha against ABUTH in %: 90%

## COC(=O)[C@@H](C)Oc1nn(-c2cnccn2)c(-c2cccc(F)c2)c1Br [Example I-20]
ABUTH [2]
  Post-emergence action at 1280 g/ha against ABUTH in %: 90%

## COC(=O)C(C)Oc1nn(-c2cnccn2)c(-c2ccc(F)nc2)c1Br (racemic) [Example I-12]
STEME [5]; Dosage 80 g/ha
  Post-emergence action against STEME in %: 80%
STEME [5]; Dosage 320 g/ha
  Post-emergence action against STEME in %: 90%
STEME [6]
  Pre-emergence action against STEME in %: 90%
HORMU [7]; Dosage 80 g/ha
  Post-emergence action against HORMU in %: 90%
HORMU [7]; Dosage 320 g/ha
  Post-emergence action against HORMU in %: 90%
HORMU [8]
  Pre-emergence action against HORMU in %: 90%

## COC(=O)[C@@H](C)Oc1nn(-c2cnccn2)c(-c2cncc(F)c2)c1Br [Example I-39]
ABUTH [4]
  Pre-emergence action against ABUTH in %: 90%
DIGSA [1]
  Post-emergence action at 1280 g/ha against DIGSA in %: 100%
DIGSA [3]
  Pre-emergence action at 1280 g/ha against DIGSA in %: 100%

## COC(=O)C(C)Oc1nn(-c2cnccn2)c(-c2ccnc(F)c2)c1Cl (racemic) [Example I-05]
STEME [5]; Dosage 320 g/ha
  Post-emergence action against STEME in %: 80%
STEME [6]
  Pre-emergence action against STEME in %: 100%
HORMU [7]; Dosage 320 g/ha
  Post-emergence action against HORMU in %: 90%
HORMU [8]
  Pre-emergence action against HORMU in %: 90%
ABUTH [2]
  Post-emergence action at 1280 g/ha against ABUTH in %: 90%

## C[C@H](Oc1nn(-c2cnccn2)c(-c2cncc(F)c2)c1Br)C(=O)O [Example I-37]
DIGSA [1]
  Post-emergence action at 1280 g/ha against DIGSA in %: 100%
ABUTH [2]
  Post-emergence action at 1280 g/ha against ABUTH in %: 90%
DIGSA [3]
  Pre-emergence action at 1280 g/ha against DIGSA in %: 100%

## COC(=O)[C@@H](C)Oc1nn(-c2cnccn2)c(-c2cncc(F)c2)c1C#N [Example I-40]
DIGSA [1]
  Post-emergence action at 1280 g/ha against DIGSA in %: 90%
DIGSA [3]
  Pre-emergence action at 1280 g/ha against DIGSA in %: 100%

## CCOC(=O)COc1nn(-c2cnccn2)c(-c2ccc(F)nc2)c1Cl [Example I-53]
DIGSA [1]
  Post-emergence action at 1280 g/ha against DIGSA in %: 100%
ABUTH [2]
  Post-emergence action at 1280 g/ha against ABUTH in %: 90%
DIGSA [3]
  Pre-emergence action at 1280 g/ha against DIGSA in %: 100%

## COC(=O)C(C)Oc1nn(-c2cnccn2)c(-c2cncc(F)c2)c1Br (racemic) [Example I-08]
ABUTH [4]
  Pre-emergence action against ABUTH in %: 80%
STEME [5]; Dosage 80 g/ha
  Post-emergence action against STEME in %: 90%
STEME [5]; Dosage 320 g/ha
  Post-emergence action against STEME in %: 90%
STEME [6]
  Pre-emergence action against STEME in %: 100%
HORMU [7]; Dosage 80 g/ha
  Post-emergence action against HORMU in %: 80%
HORMU [7]; Dosage 320 g/ha
  Post-emergence action against HORMU in %: 90%
HORMU [8]
  Pre-emergence action against HORMU in %: 100%

## COC(=O)C(C)Oc1nn(-c2cnccn2)c(-c2ccnc(F)c2)c1Br (racemic) [Example I-10]
STEME [5]; Dosage 320 g/ha
  Post-emergence action against STEME in %: 90%
HORMU [7]; Dosage 80 g/ha
  Post-emergence action against HORMU in %: 80%
HORMU [7]; Dosage 320 g/ha
  Post-emergence action against HORMU in %: 80%
HORMU [8]
  Pre-emergence action against HORMU in %: 80%

## COC(=O)COc1nn(-c2cnccn2)c(-c2cncc(F)c2)c1Br [Example I-07]
STEME [5]; Dosage 80 g/ha
  Post-emergence action against STEME in %: 90%
STEME [5]; Dosage 320 g/ha
  Post-emergence action against STEME in %: 90%
STEME [6]
  Pre-emergence action against STEME in %: 100%
HORMU [7]; Dosage 80 g/ha
  Post-emergence action against HORMU in %: 80%
HORMU [7]; Dosage 320 g/ha
  Post-emergence action against HORMU in %: 90%
HORMU [8]
  Pre-emergence action against HORMU in %: 90%
